In data set [1] the target is T1, myosin II (Dictyostelium discoideum, UniProt P08799, S456L).
T1 construct: expressed in transfected cells; host or cells: Dictyostelium discoideum myoII null cells rescued with GFP-myosin II
Briefly: Myosin II cortical localization by SIM, TIRF and confocal imaging. It is filed as cell-based. As to conditions: myoII null cells, time course beyond one hour. The method, then: (§1) Micropipette aspiration was used for cortical tension and creep response measurements. Confocal imaging was performed on a Zeiss 510 Meta with a 63× (numerical aperture [NA] 1.4) objective (Carl Zeiss, Jena, Germany). Epifluorescence and TIRF imaging was performed in a 22° C. temperature controlled room with an Olympus IX81 microscope using a 40× (NA 1.3) or 60× (NA 1.49) objective and a 1.4× optovar (Olympus, Center Valley, Pa.), as previously described. Image analysis was performed with ImageJ (rsb.info.nih.gov/ij).
(§2) Imaging conditions during primary screen are described above. All other image analysis was performed as previously described (Kee Y S, et al., 2012). Cells were transferred from Petri dishes (with 0.1% DMSO incubation in growth media of 4 hrs) to imaging chambers and allowed to adhere for 20 min in growth media with 0.1% DMSO. After the cells adhered, the growth media was replaced with 2-(N-morpholino)ethanesulfonic acid (MES) starvation buffer (50 mM MES, pH 6.8, 2 mM MgCl2, 0.2 mM CaCl2) with 0.1% DMS. Confocal imaging was performed on aZeiss 510 Meta with a 63× (numerical aperture [NA] 1.4) objective (Carl Zeiss, Jena, Germany). Epifluorescence and TIR imaging was performed in a 22° C. temperature controlled room with an Olympus IX81 microscope using a 40× (NA 1.3) or 60× (NA […]) objective and a 1.4× optovar (Olympus, Center Valley, Pa.), as previously described. Image analysis was performed with ImageJ (rsb.info.nih.gov/ij). Many data sets were independently analyzed by multiple investigators.

The target of data set [2] is T2, myosin II (Dictyostelium discoideum, UniProt P08799, T1823A/T1833A/T2029A).
T2 construct: expressed in transfected cells; host or cells: Dictyostelium discoideum myoII null cells rescued with GFP-myosin II
The description is as above. It is filed as cell-based. As to conditions: myoII null cells, 500 nM, 10 minutes post-treatment. The method, then:
as §1, §2

Data set [3] addresses T3, myosin II (Dictyostelium discoideum, UniProt P08799, T1823D/T1833D/T2029D).
T3 construct: expressed in transfected cells; host or cells: Dictyostelium discoideum myoII null cells rescued with GFP-myosin II
The data set is described as above. The class given is cell-based. As to conditions: myoII null cells, 500 nM, 10 minutes post-treatment. As for the experimental part: as §1, §2

The subject of data set [4] is myosin II. Described as above. It is filed as cell-based, Dictyostelium discoideum. Conditions: myoII null cells. The method, then:
as §1, §2

The test system of the next data set is A10.7 cells. The data set is described as follows: Micropipette aspiration mechanics. It is filed as cell-based, human. Conditions: PDAC A10.7 cells. The method, then:
(§3) The instrumental and experimental setups have been previously described (Effler J C, et al., 2006; Kee Y-S, et al., 2013). Micropipette aspiration assays were all carried out in growth media with 0.1% DMSO. For cortical tension measurements of Dictyostelium cells, pressure was applied to the cell cortex with a micropipette (2-3 m radius, Rp) to the equilibrium pressure (ΔP) where the length of the cell inside the pipette (Lp) was equal to Rp. The effective cortical tension (Teff) was calculated by applying the Young-Laplace equation: ΔP=2Teff(1/Rp-1/Rc), where Rc is the radius of the cell and ΔP is the equilibrium pressure when Lp=Rp (Derganc J, et al., 2000; Octtaviani E, et al., 2006). For creep tests on mammalian strains, a constant aspiration stress was applied over 60 s. The micropipette radius was 3.5-4.5 m. For quantification, the Lp/Rp ratio values was measured every two seconds and plotted as a function of time. A10.7 and HEK293 cells could only be aspirated at a low pressure range (0.15 nN/μm^2), while HPDE, ASPC-1, and HL-60 cells could be aspirated at higher pressure ranges (0.25 nN/μm^2) because they were stiffer.

A further data set concerns HL-60 cells. Briefly: Micropipette aspiration cortical tension. The class given is cell-based, human. As to conditions: 500 nM, 1 hr. The method, then:
as §3

In the next data set the target is T4, myosin IIA (Homo sapiens, UniProt P35579).
T4 construct: endogenous in cells; host or cells: HEK293, HPDE, ASPC-1
Briefly: Mammalian cell sedimentation assay. The class given is cell-based. Conditions: human-derived cell lines. The method, then:
(§4) Sedimentation protocol was adapted from the protocol above. 3×10^6 cells were pelleted for 5 min at 2000 rpm and washed in 1 ml PBS. The pellet was resuspended in 100 μl lysis buffer (50 mM PIPES, pH 6.8, 46 mM NaCl, 2.5 mM EGTA, 1 mM MgCl2, 1 mM ATP, 0.5% Triton X-100, and protease inhibitors—PI cocktail, PMSF, TLCK, Aprotinin). Samples were vortexed briefly and incubated on ice for 20 min, followed by centrifugation at 15,000 g for 5 min at 4° C.
(§5) Pellet was resuspended in 100 μl lysis buffer minus Triton X-100, and both pellet and supernatant fractions were heated to 100° C. for 3 min with RNaseA. Samples were incubated at 37° C. for 30 min and then heated to 100° C. in sample buffer for 5 min. Samples were loaded on a 15% SDS-polyacrylamide gel. Western blot analyses of phospho-myosin IIA was performed on whole cell lysates of cells treated as above in lysate buffer with 10 mM NaF.

Another data set concerns the target T5, myosin IIB (Homo sapiens, UniProt P35580).
T5 construct: endogenous in cells; host or cells: HEK293, HPDE
The data set is described as follows: Mammalian cell sedimentation assay. It is filed as cell-based. The method, then: as §4, §5

The next data set concerns the target T6, myosin IIC (Homo sapiens, UniProt Q7Z406).
T6 construct: endogenous in cells; host or cells: HEK293, ASPC-1, HPDE
The data set is described as follows: Mammalian cell sedimentation assay. The class given is cell-based. As for the experimental part:
as §4, §5

Data set [5] concerns ASPC-1 cells. Briefly: Viability assay. As to conditions: 50 nM, 500 nM. The class given is cell-based, human.
For data set [6], the system named is ASPC-1 cells. The data set is described as follows: Retrograde actin flow (SiR-actin, lattice light-sheet). It is filed as cell-based, human. As to conditions: 500 nM. As for the experimental part:
AsPC-1 cells were grown on collagen I-coated (50 μg/ml) 5-mm coverslips for 16 hrs and then treated with 100-nM SiR-Actin (Cytoskeleton, Inc) and […] Verapamil for 4 hrs in Leibovitz L-15 without phenol red media, with or without 4-HAP (500 nM). Coverslips were transferred to the imaging chamber of the Lattice Light-Sheet Microscope (LLSM) (Intelligent Imaging Innovations) containing fresh Leibovitz L-15 media without SiR-Actin and verapamil plus the corresponding 4-HAP concentration. Cells were imaged for 3-5 min at 2-3-sec intervals, 50-150 planes per 3D stack, with a Nikon CFI75 Apochromat 25×/1.1 water-dipping objective. Retrograde actin flow was measured using ImageJ (rsb.info.nih.gov/ij). Datasets were independently analyzed by multiple investigators.

For a further data set, the system named is NMIIA, NMIIC, ACTN4. The data set is described as follows: Western analysis of mechanobiome protein expression. The class given is cell-based, human. As to conditions: Panc10.05 cells, overnight treatment.

T6 sequence (Q7Z406 whole entry): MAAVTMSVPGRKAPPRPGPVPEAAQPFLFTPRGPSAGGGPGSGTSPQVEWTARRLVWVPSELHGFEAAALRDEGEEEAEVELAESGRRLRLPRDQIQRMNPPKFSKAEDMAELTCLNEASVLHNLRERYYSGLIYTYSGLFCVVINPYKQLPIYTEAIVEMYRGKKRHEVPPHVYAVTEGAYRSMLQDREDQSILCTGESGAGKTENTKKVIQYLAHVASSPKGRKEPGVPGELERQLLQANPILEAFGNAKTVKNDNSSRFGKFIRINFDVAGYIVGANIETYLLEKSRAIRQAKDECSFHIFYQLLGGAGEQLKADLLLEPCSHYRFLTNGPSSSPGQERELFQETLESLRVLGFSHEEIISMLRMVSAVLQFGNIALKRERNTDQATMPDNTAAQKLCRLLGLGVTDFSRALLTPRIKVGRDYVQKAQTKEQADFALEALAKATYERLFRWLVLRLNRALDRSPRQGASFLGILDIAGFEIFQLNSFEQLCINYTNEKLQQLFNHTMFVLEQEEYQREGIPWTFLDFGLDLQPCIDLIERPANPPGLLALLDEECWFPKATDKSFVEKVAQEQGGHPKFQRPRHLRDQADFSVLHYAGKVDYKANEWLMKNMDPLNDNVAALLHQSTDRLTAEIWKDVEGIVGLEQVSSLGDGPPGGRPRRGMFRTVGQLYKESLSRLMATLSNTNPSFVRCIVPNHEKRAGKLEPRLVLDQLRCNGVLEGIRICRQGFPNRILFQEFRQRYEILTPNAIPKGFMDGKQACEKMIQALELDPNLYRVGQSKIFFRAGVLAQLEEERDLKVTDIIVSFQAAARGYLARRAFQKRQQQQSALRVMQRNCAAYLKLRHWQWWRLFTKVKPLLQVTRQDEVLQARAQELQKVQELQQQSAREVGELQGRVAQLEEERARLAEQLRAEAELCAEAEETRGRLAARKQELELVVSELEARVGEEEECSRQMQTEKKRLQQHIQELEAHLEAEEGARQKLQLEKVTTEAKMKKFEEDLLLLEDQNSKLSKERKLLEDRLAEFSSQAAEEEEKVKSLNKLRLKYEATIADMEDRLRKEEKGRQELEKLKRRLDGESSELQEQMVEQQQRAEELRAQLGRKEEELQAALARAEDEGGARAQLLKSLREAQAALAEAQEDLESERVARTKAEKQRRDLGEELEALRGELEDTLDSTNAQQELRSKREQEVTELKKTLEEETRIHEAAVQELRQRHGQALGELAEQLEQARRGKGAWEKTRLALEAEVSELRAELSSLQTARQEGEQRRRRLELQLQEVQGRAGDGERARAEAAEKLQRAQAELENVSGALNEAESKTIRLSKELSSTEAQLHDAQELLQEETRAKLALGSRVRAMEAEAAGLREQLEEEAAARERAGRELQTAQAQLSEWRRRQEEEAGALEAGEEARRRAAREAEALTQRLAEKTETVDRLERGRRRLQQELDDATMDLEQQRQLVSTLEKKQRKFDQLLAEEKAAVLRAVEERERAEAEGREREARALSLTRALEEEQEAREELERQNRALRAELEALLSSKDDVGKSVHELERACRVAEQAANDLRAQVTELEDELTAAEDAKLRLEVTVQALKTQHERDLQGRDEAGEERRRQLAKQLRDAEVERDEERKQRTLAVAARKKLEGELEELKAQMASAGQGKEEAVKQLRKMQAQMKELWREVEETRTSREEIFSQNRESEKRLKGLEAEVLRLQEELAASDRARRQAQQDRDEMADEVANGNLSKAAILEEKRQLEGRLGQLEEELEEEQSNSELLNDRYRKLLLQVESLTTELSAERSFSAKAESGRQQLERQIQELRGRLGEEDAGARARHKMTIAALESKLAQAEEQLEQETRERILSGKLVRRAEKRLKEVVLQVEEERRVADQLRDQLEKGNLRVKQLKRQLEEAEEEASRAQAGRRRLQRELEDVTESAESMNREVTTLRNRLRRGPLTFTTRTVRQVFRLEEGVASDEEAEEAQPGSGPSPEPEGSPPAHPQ
T5 sequence (P35580 whole entry): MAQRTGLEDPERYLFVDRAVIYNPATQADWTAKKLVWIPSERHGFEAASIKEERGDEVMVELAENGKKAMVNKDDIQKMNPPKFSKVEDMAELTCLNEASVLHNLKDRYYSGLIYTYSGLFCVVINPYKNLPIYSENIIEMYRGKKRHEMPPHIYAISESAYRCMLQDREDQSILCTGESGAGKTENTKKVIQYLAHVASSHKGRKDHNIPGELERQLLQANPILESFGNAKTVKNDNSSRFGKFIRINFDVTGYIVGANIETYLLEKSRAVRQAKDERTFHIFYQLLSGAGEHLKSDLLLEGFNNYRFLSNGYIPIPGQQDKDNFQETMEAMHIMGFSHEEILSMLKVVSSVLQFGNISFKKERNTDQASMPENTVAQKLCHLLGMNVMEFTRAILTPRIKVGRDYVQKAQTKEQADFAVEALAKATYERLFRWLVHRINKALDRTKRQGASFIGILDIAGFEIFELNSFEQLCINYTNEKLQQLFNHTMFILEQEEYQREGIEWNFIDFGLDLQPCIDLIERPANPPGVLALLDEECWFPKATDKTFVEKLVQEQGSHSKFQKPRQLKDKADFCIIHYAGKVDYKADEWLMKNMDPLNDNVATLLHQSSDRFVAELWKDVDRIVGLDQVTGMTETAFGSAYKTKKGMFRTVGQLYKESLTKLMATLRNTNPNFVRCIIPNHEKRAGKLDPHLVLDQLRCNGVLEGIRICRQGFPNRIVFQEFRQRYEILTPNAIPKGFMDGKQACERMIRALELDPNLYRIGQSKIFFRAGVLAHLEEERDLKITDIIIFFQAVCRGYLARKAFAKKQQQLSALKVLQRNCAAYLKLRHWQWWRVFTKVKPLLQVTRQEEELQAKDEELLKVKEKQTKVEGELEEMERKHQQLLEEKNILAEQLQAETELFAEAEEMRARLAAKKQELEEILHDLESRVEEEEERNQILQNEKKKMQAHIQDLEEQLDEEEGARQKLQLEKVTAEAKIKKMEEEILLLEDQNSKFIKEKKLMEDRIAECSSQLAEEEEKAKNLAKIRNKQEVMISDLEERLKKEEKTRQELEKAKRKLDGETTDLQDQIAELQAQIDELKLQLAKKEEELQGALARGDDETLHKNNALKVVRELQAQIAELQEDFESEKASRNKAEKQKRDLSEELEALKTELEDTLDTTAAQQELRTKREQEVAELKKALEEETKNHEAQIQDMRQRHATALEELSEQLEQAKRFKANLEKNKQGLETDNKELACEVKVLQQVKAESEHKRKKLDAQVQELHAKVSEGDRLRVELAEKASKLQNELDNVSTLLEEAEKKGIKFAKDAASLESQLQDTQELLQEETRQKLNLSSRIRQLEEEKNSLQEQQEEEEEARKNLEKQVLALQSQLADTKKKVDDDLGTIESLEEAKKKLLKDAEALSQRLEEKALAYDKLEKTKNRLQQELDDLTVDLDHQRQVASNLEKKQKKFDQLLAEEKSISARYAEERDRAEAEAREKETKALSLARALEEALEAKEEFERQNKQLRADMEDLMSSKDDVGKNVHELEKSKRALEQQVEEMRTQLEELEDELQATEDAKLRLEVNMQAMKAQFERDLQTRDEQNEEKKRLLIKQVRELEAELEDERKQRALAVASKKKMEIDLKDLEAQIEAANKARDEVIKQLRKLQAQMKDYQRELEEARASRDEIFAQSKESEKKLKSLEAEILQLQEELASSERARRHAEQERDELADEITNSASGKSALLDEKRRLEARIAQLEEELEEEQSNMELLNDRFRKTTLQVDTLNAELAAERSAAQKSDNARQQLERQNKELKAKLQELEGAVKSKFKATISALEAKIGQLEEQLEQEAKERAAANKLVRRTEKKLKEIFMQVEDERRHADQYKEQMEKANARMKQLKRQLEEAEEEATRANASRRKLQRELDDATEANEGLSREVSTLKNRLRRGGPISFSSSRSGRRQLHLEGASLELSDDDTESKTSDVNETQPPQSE

On to `CC(=O)c1ccc(O)cc1` [4-HAP, 4-hydroxyacetophenone], for which the “myosin accumulation, GFP-S456L myosin” value on myosin II [1] is given as “did not show a response to 4-HAP”. The “filament formation, GFP-3XAla myosin” value at myosin II [2] was “increasing in filament length and intensity”. For the same compound, the “filament formation, GFP-3XAsp myosin” value at myosin II [3] is given as “generating more short filaments”. In the data set with myosin II [4], the “myosin accumulation, GFP-S1 motor domain” value is listed as “did not show an accumulation response”. Moreover, the values for the cortical tension result in the data set with A10.7 cells and in the data set on HL-60 cells were “decreases the cortical tension” and “does not alter the cortical tension”, respectively. Moreover, the “assembled myosin IIA” value at myosin IIA was “showed little change”. Further, the “assembled myosin IIB” value at myosin IIB (HEK293 cells, 500 nM, 1 hr) is “increases in assembled myosin IIB and IIC”; on myosin IIB (HPDE cells) it was “showed a shift in assembly”. Besides, the “assembled myosin IIC” value at myosin IIC (ASPC-1 cells, 500 nM, 1 hr) is “increases assembled myosin IIC”; on myosin IIC (HEK293 cells, 500 nM, 1 hr) it was “increases in assembled myosin IIB and IIC”; on myosin IIC (wild type HPDE cells), “increases assembled myosin IIC”. Moreover, in the data set with ASPC-1 cells [5], the “viability vs DMSO control” value is given as “no difference over DMSO control”. Moreover, the “detectability of actin flow” value with ASPC-1 cells [6] is “undetectable levels of actin flow”. The “reduction in retrograde actin flow velocity over untreated controls” value in the data set with ASPC-1 cells [6] (cells in which flow could be measured) was determined as 50%. The “expression of NMIIA, NMIIC, or ACTN4” value in the data set on NMIIA, NMIIC, ACTN4 is “does not affect the expression”.

Values taken from US11834401B2, “Treating and preventing diseases by modulating cell mechanics” (THE JOHNS HOPKINS UNIVERSITY, priority 2013, dated 2023).
